From patent US9156783B2, “Compounds for treating proliferative disorders” (Synta Pharmaceuticals Corp., priority 2006, dated 2015)

Tested on: inducible human Hsp70
Assay: Hsp70 RNA induction by quantitative PCR analysis in Ramos B cells
Assay type: cell-based
Conditions: 500 nM compound, 6 hours; for % induction relative to Compound B: Compound B induction set to 100%; for fold induction at 0.5 µM: Homo sapiens, read-out: fold induction over DMSO
Protocol: The ability of the compounds of the invention to induce Hsp70 RNA induction by quantitative PCR analysis was examined. Ramos B cells were treated with 500 nM each compound for 6 hours and the RNA was isolated from the cells. Quantitative PCR was performed as described below:
Details for Quantitative PCR are as follows:
500 ng of RNA from each sample was used for cDNA synthesis using iScript cDNA Synthesis Kit (Biorad, Cat #170-8891). 1 ul of cDNA mixture was used with the iQ SYBR Green Supermix (Biorad, Cat#170-8882) to perform quantitative PCR in an iCycler machine (Biorad) using standard protocols. QPCR for each sample/time point was performed in duplicate. The following primers for inducible human Hsp70 and gapdh were used: […]
Ct values were obtained from the iCycler program and used in an equation (2^−ΔΔCT) for determining the amount of target relative to gapdh expression. This compares the relative expression of Hsp70 to the corresponding levels of gapdh in each sample. Duplicate wells were averaged. The amount of N-Malonyl-bis(N′-methyl-N′thiobenzoylhydrazide) (Compound B) induction of Hsp70 was set to 100% and the percent of induction of Hsp70 by the compounds of the invention was determined relative to 100%.

Row | SMILES | % induction relative to Compound B [%] | fold induction at 0.5 µM
1 | COP(=O)(CP(=O)(NN(C)C(=S)c1ccccc1)OC)NN(C)C(=S)c1ccccc1 (stereo not shown) [Compound 30, Dimethyl N,N′-methylenebis(N′-methyl-N′(phenylcarbonothioyl)-phosphonohydrazidate)] | 0.34 | 0.85
2 | CN(NC(=O)CS(=O)(=O)NN(C)C(=S)c1ccccc1)C(=S)c1ccccc1 [Compound 68, N′-Methyl-2-(2-methyl-2-(phenylcarbonothioyl)hydrazinyl)-2-oxo-N′-(phenylcarbonothioyl)ethanesulfonohydrazide] | 11.78 | 29.3
3 | COP(=O)(CP(=O)(NN(C)C(=O)c1ccccc1)OC)NN(C)C(=O)c1ccccc1 (stereo not shown) [Compound 33] | 0.14 | 0.35
4 | CNN=C(C(=O)NN(C)C(=S)c1ccccc1)C(=O)NN(C)C(=S)c1ccccc1 [Compound 71, N′1,N′3-dimethyl-2-(2-methylhydrazono)-N′1,N′3-di(phenylcarbonothioyl)-malonohydrazide] | 17.59 | 46.9
5 | CN(NC(=O)CC(=O)NN(C)/C(=N/S(C)(=O)=O)c1ccccc1)/C(=N/S(C)(=O)=O)c1ccccc1 [Compound 67, N′1,N′3-bis(methanesulfonimino(phenyl)methyl)-N′1,N′3-dimethylmalonohydrazide] | 0.75 | 1.87
